Consider nine molecules from patent publication US4072810A, “Coupled peroxides” (priority 1973, dated 1978).

Where two headings read alike, the source gives them in different places.

Data set [1] can be described thus: Crosslinking of polyethylene (Table I, xylene solvent extraction). The settings on record: for % Crosslinking: 30 minutes; for efficiency as crosslinking agent: in words, see Table I. The procedure: A mixture of the desired polymeric material and 0.01 mole of the difunctional coupled compound is blended together on a standard roll mill, such as used in the rubber industry. […]
The slabs are permitted to cool down and mature at room temperature for 24 hours. The mature slabs were then cut into dumbell shaped samples and tested for tensile strength on an Instron Tensile Tester, following ASTM procedure as described in D412-61T "Tension Testing of Vulcanized Rubber" or the crosslinking in the case of polyethylene is determined by the solvent extraction procedure. In addition to the polymer-peroxide mixture, the crosslinkable mixture, may contain co-agents such as sulfur, promoters, fillers, and reinforcing materials. Desirable fillers are carbon black, titanium dioxide, calcium silicate and alkaline earth metal carbonates.
In Table I the crosslinking ability of the coupled compounds of our invention in polyethylene are compared to a hydroxy-containing peroxide and to difunctional peroxides. Tables II, III, and IV show the versatility of the product of our invention in urethane rubber, ethylene-propylene rubber and silicone rubber.
The polyethylene used for this test was a low density polyethylene
Bakelite DYNH-1, having the following physical properties:
The crosslinking test was carried out at 340° and 375° F.
(1) The percentage crosslinking was determined by extraction of the
crosslinked sample with refluxing xylene. In all cases the polyethylene
charge was 100% extractable before crosslinking.
(2) Based on number of active oxygens per mole.

The nature of data set [2]: Initiation of vinyl monomer (styrene) polymerization. The procedure:
This example illustrates the use of coupled peroxides of present disclosures as initiators of vinyl monomer polymerization. Compound [B] (from Example V) at a concentration of 5 × 10^-4 moles per deciliter of styrene, polymerized styrene at 100° C. at a rate of 6.20 × 10^-3 moles per liter per minute. When no initiator is present, the thermal polymerization of styrene at 100° C. proceeds at a rate of 2.82 × 10^-3 moles per liter per minute. Compound [A] (from Examples I, II, and III) at a concentration of 5 × 10^-4 moles per diciliter of styrene polymerized styrene 1.65 faster at 115° C. than the thermal polymerization rate when no polymerization initiator is present.

The nature of data set [3]: S.P.I. exotherm, curing an unsaturated polyester-styrene resin (Table V). Particulars: 1% concentration; for Cure Time / Gel Time: 115° C.; for Peak: exotherm at 115° C. As to the method: An unsaturated polyester resin was made by reacting maleic anhydride (1.0 mole), phthalic anhydride (1.0 mole), and propylene glycol (2.2 mole) until an acid number of 45-50 was obtained. To this was added hydroquinone at a 0.013% concentration. Seven parts of this unsaturated polyester was diluted with 3 parts of monomeric styrene to obtain a homogeneous blend having a viscosity of 13.08 poise and a specific gravity of 1.14. To 20 g. of this blend was added the 0.2 g. of the desired coupled peroxide and the resulting composition placed in a constant temperature bath at 115° C.
The internal temperature was recorded as function of time. The following results were obtained with some of the coupled compounds (Table V):
S.P.I. EXOTHERM AT 115° C. AND 1% CONCENTRATION
IN POLYESTER RESIN PREPARED IN EXAMPLE VIII

Data set [4] can be described thus: Half-life of coupled and uncoupled hydroxy-peroxides in benzene. Particulars: for t1/2: benzene, 0.1 molar, 100000 µM; for half-life relative to the hydroxy containing peroxide precursors: in words, see Example XVI. The format is physicochemical. The text has this:
Half-Life Comparisons of Coupled and Uncoupled Hydroxy-Peroxides (Carried out in Benzene at 0.1 molar concentrations)

The conditions of data set [5]: in words; milling step; cited from earlier work.
Data set [6] is described as follows: Volatility and thermal stability of peroxides (in words). The format is physicochemical. The text has this: Some of the desirable properties that a peroxide has to have to be useful for crosslinking polyethylene are: low volatility, high thermal stability, and good efficiency with respect to its active oxygen content.
The volatility and the thermal stability are necessary requisites, since the peroxide has to tolerate the high temperatures of the milling operation, which is a necessary step to incorporate the peroxide with the polymer before the crosslinking process. If the peroxide is too volatile (as in the case of di-t-butyl peroxide) there would not be any peroxide left for the crosslinking process at the end of the milling step. If the peroxide is not volatile, but its thermal stability is low, a premature decomposition of the peroxide will take place during the milling step, which results in a premature crosslinking of the polymer. If this happens, the polymer cannot be shaped or formed any further since the thermoplastic polymer has become thermoset too soon.

Take `CC(CC(C)(C)OOC(C)(C)C)OC(=O)CCC(=O)OC(C)CC(C)(C)OOC(C)(C)C` (stereo not drawn) [Di[1,3-dimethyl-3-(t-butylperoxy)butyl]succinate]: the “% Crosslinking” value in data set [1] (340° F., 0.010 molar equivs.) was 88.9%; in data set [1] (375° F., 0.010 molar equivs.), 89.2%.

Regarding `CC(C)(C)OOC(C)(C)CCC(C)(C)OOC(C)(C)C` [2,5-dimethyl-2,5-di(t-butylperoxy)-hexane], the “% Crosslinking” value in data set [1] (340° F., 0.010 molar equivs.) is reported as 85.9%; in data set [1] (340° F., 0.015 molar equivs.) it was 89.3%; in data set [1] (375° F., 0.010 molar equivs.), 84.5%; in data set [1] (375° F., 0.015 molar equivs.), 88.0%. In data set [1], the “efficiency as crosslinking agent” value is on record as “not as efficient in utilizing their active oxygen content as the difunctional peroxide of our invention”.

For the molecule `CC(C)(C)OOC(=O)CCOC(=O)OCCC(=O)OOC(C)(C)C` [Di[2-(t-butylperoxycarbonyl)ethyl]carbonate], the “rate of styrene polymerization” value in data set [2] (100° C., 5 × 10^-4 moles per deciliter of styrene) is recorded as 6.20 × 10^-3 moles per liter per minute. For the same molecule, in data set [3], the “Cure Time” value was 8.5 min, the “Gel Time” value stood at 7.1 min and the Peak was 450 ° F. For the same molecule, the t1/2 in data set [4] (100° C.) is 30.7 h. Besides, the “half-life relative to the hydroxy containing peroxide precursors” value in data set [4] was “almost double”.

`CC(CC(C)(C)OOC(C)(C)C)OC(=O)OC(C)CC(C)(C)OOC(C)(C)C` (stereo not drawn) [Di[1,3-dimethyl-3-(t-butylperoxy)butyl] carbonate]: in data set [1] (340° F., 0.010 molar equivs.), the “% Crosslinking” value turned out to be 89.3%. For the same molecule, the “% Crosslinking” value in data set [1] (375° F., 0.010 molar equivs.) turned out to be 89.7%. In data set [2] (115° C., 5 × 10^-4 moles per diciliter of styrene), the “styrene polymerization, faster than the thermal polymerization rate when no initiator is present” value was determined as 1.65. Besides, in data set [3], the “Cure Time” value came out at 11.1 min, the “Gel Time” value came out at 9.5 min and the Peak stood at 455 ° F. In data set [4] (115° C.), this molecule displayed a t1/2 of 26.8 h. In addition, in data set [4], the “half-life relative to the hydroxy containing peroxide precursors” value is given as “almost double”.

Take `CC(C)(C)OOC(C)(C)C#CC(C)(C)OOC(C)(C)C` [2,5-dimethyl-2,5-di(t-butylperoxy)-hexyne-3]: the “% Crosslinking” value in data set [1] (340° F., 0.010 molar equivs.) stood at 81.8%; in data set [1] (340° F., 0.015 molar equivs.), 86.0%; in data set [1] (375° F., 0.010 molar equivs.), 84.9%; in data set [1] (375° F., 0.015 molar equivs.), 87.7%. Moreover, the “efficiency as crosslinking agent” value in data set [1] was “not as efficient in utilizing their active oxygen content as the difunctional peroxide of our invention”.

`CC(C)(C)OOC(=O)CCO` [t-butylperoxy 3-hydroxypropionate, reference compound] registered a t1/2 in data set [4] (100° C.) of 13.0 h.

For the molecule `CC(C)(C)OOC(C)(C)C` [di-t-butyl peroxide], the volatility result in data set [5] is given as “too volatile”.

With `CC(CC(C)(C)OOC(C)(C)C)OC(=O)OCCOC(=O)OC(C)CC(C)(C)OOC(C)(C)C` (stereo not drawn) [Ethylene Bis[1,3-dimethyl-3-(t-butylperoxy)-butyl carbonate]], in data set [1] (340° F., 0.010 molar equivs.), the “% Crosslinking” value was 87.9%. For the same molecule, the “% Crosslinking” value in data set [1] (375° F., 0.010 molar equivs.) worked out at 87.4%. Besides, in data set [3], the “Cure Time” value came to 12.8 min, the “Gel Time” value worked out at 10.8 min and the Peak was 450 ° F.

With `CC(O)CC(C)(C)OOC(C)(C)C` (stereo not drawn) [2-Methyl-2-(t-butylperoxy)-4-pentanol], the “% Crosslinking” value in data set [1] (340° F., 0.015 molar equivs.) is 78.4%. In data set [1] (375° F., 0.015 molar equivs.), the “% Crosslinking” value worked out at 75.4%. In addition, in data set [1], the “efficiency as crosslinking agent” value is reported as “poor”. In addition, in data set [4] (115° C.), the t1/2 is 13.6 h. Moreover, in data set [6], the thermal stability result is listed as “good” and the volatility entry was “low”.
